Several values for one entry are separate records, joined by “and”; a condition that tells them apart may be missing. Equal entries are not always repeated.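 Results reflect a 48-hour exposure of cells in 96-well plates to compound at five concentrations. Abbreviation: GI50, concentration required for 50% inhibition of growth. Definition used: TGI = concentration required for complete inhibition of growth.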
Legend:
Assay in all cases: NCI anticancer screen, dose series, 48 h
[1] = test system: SW-620 colon
[2] = test system: NCI-H226 lung
[3] = test system: MCF7 breast
[4] = test system: UACC-62 melanoma
[5] = test system: TK-10 renal
[6] = test system: HOP-62 NSCLC
[7] = test system: SK-MEL-28 melanoma
[8] = test system: M14 melanoma
[9] = test system: HCT-15 colon
[10] = test system: OVCAR-8 ovarian

CN1CCCN(CCNc2nccc(-c3c(-c4cccc(O)c4)nc4sccn34)n2)S1(=O)=O
GI50 [1]: 18.7 µM and 19.1 µM
TGI [1]: 75 µM and > 100 µM
GI50 [2]: 15.3 µM and 11.3 µM
TGI [2]: 50 µM and 54.5 µM
GI50 [3]: 22.1 µM and 18.8 µM
TGI [3]: 75 µM and > 100 µM
GI50 [4]: 0.0417 µM and 0.0537 µM
TGI [4]: 1.4 µM and 2.22 µM
GI50 [5]: 13 µM and 11.6 µM
TGI [5]: 64.6 µM and 73.2 µM
GI50 [6]: 30.6 µM and 30.9 µM
TGI [6]: 75 µM and > 100 µM
GI50 [7]: 0.168 µM and 0.226 µM
TGI [7]: 60.8 µM and 40.3 µM
GI50 [8]: 0.17 µM and 0.128 µM
TGI [8]: 9.04 µM and 13.2 µM
GI50 [9]: 7.12 µM and 5.51 µM
TGI [9]: 75 µM and 98.4 µM

O=c1oc2ccccc2c(O)c1C=NC(=S)c1ccncc1
TGI [1]: > 100 µM
TGI [2]: > 100 µM
TGI [3]: > 100 µM
TGI [4]: > 100 µM
TGI [5]: > 100 µM
TGI [6]: > 100 µM
TGI [7]: > 100 µM
TGI [8]: > 100 µM
TGI [10]: > 100 µM
TGI [9]: > 100 µM

COc1cc(-c2oc3ccccc3c(=O)c2O)cc(OC)c1OC
TGI [1]: > 100 µM
TGI [3]: > 100 µM
TGI [4]: > 100 µM
TGI [5]: > 88.5 µM
TGI [6]: 71.1 µM
TGI [7]: > 100 µM
TGI [8]: > 100 µM
TGI [10]: > 100 µM
TGI [9]: > 100 µM

Cn1cc(C2=C(c3cn(C)c4ccc(N)cc34)C(=O)NC2=O)c2ccccc21
GI50 [1]: 5 µM
TGI [1]: > 25 µM
GI50 [2]: > 17.6 µM
TGI [2]: > 25 µM
GI50 [3]: 4.76 µM
TGI [3]: > 25 µM
GI50 [4]: 13.1 µM
TGI [4]: > 25 µM
GI50 [5]: 23.1 µM
TGI [5]: > 25 µM
GI50 [6]: 9.59 µM
TGI [6]: > 25 µM
GI50 [7]: 17.2 µM
TGI [7]: > 25 µM
GI50 [8]: 13.9 µM
TGI [8]: > 25 µM
GI50 [10]: 17 µM
TGI [10]: > 25 µM
GI50 [9]: 4.52 µM
TGI [9]: > 25 µM

COc1ccc(-c2cc(-c3ccc(Cl)cc3)c(C#N)c(=O)n2CCCCC(=O)Nc2ccccc2N)cc1
GI50 [1]: 12.6 µM
TGI [1]: > 100 µM
GI50 [2]: 6.26 µM
TGI [2]: 70.9 µM
GI50 [3]: 4.03 µM
TGI [3]: > 100 µM
GI50 [4]: 3.29 µM
TGI [4]: 13 µM
GI50 [5]: 27.9 µM
TGI [5]: > 100 µM
GI50 [6]: 12.7 µM
TGI [6]: > 100 µM
GI50 [7]: 9.13 µM
TGI [7]: > 100 µM
GI50 [8]: 2.58 µM
TGI [8]: 8.14 µM
GI50 [10]: 4.7 µM
TGI [10]: > 100 µM
GI50 [9]: 3.03 µM
TGI [9]: 13 µM

Fc1cccc(COc2ccc(Nc3ncnc4sc(-c5ccco5)cc34)cc2Cl)c1
GI50 [1]: > 25 µM
TGI [1]: > 25 µM
GI50 [2]: > 25 µM
TGI [2]: > 25 µM
GI50 [3]: > 25 µM
TGI [3]: > 25 µM
GI50 [4]: > 25 µM
TGI [4]: > 25 µM
GI50 [5]: > 25 µM
TGI [5]: > 25 µM
GI50 [6]: > 25 µM
TGI [6]: > 25 µM
GI50 [7]: > 25 µM
TGI [7]: > 25 µM
GI50 [8]: > 25 µM
TGI [8]: > 25 µM
GI50 [10]: > 25 µM
TGI [10]: > 25 µM
GI50 [9]: > 25 µM
TGI [9]: > 25 µM

COC(=O)C1=C(OC(=O)c2ccc(Cl)cc2)C(C(=O)OC)[C@@]2(O)[C@@H](C(=O)OC)C(c3ccccc3C(F)(F)F)C[C@@H]1[C@@H]2C(=O)OC (stereo partly specified)
GI50 [1]: 3.83 µM
TGI [1]: 21.1 µM
GI50 [3]: 10.7 µM
TGI [3]: 87.5 µM
GI50 [4]: 1.8 µM
TGI [4]: 3.65 µM
GI50 [5]: 33 µM
TGI [5]: 78.8 µM
GI50 [6]: 9.24 µM
TGI [6]: > 100 µM
GI50 [7]: 6.69 µM
TGI [7]: > 100 µM
GI50 [8]: 3.16 µM
TGI [8]: 13 µM
GI50 [10]: 2.72 µM
TGI [10]: 9.87 µM
GI50 [9]: 2.87 µM
TGI [9]: 14.6 µM

CC(C)n1c(/C=C/[C@@H](O)C[C@@H](O)CC(=O)O)c(-c2ccc(F)cc2)c2ccccc21
GI50 [1]: 3.76 µM and 5.15 µM
TGI [1]: > 100 µM
GI50 [2]: 2.89 µM and 3.71 µM
TGI [2]: > 100 µM
GI50 [3]: 20.7 µM and 16.6 µM
TGI [3]: > 100 µM
GI50 [4]: 0.526 µM and 0.537 µM
TGI [4]: 34.4 µM and 25 µM
GI50 [5]: 33.7 µM and 7.85 µM
TGI [5]: > 100 µM
GI50 [6]: 11.4 µM and 13 µM
TGI [6]: > 100 µM
GI50 [7]: 12.2 µM and 15.4 µM
TGI [7]: 53.9 µM and > 86.3 µM
GI50 [8]: 19.4 µM and 11.9 µM
TGI [8]: > 100 µM
GI50 [10]: 1.32 µM and 0.842 µM
TGI [10]: > 100 µM
GI50 [9]: 3.04 µM and 1.66 µM
TGI [9]: > 100 µM

S=C(N/N=C/c1cc(Cl)cc(Cl)c1)NC12CC3CC(CC(C3)C1)C2
GI50 [1]: 13.4 µM
TGI [1]: > 100 µM
GI50 [2]: > 29.9 µM
TGI [2]: > 100 µM
GI50 [3]: > 82.3 µM
TGI [3]: > 100 µM
GI50 [4]: 10.2 µM
TGI [4]: > 100 µM
GI50 [5]: 4.44 µM
TGI [5]: 19.1 µM
GI50 [6]: 2.43 µM
TGI [6]: 5.93 µM
GI50 [7]: 14.4 µM
TGI [7]: > 100 µM
GI50 [8]: 65 µM
TGI [8]: > 100 µM
GI50 [10]: 4.87 µM
TGI [10]: > 100 µM
GI50 [9]: > 56.6 µM
TGI [9]: > 100 µM

CC[C@H](C)[C@H](NC(=O)c1cnccn1)C(=O)N(C)[C@H](C[C@@H](OC(C)=O)c1nc(C(=O)N[C@@H](Cc2ccccc2)C[C@H](C)C(=O)OC)cs1)C(C)C
GI50 [1]: 1.28 µM
TGI [1]: > 33.3 µM
GI50 [2]: 4.74 µM
TGI [2]: > 33.3 µM
GI50 [3]: 0.0909 µM
TGI [3]: > 33.3 µM
GI50 [4]: 0.105 µM
TGI [4]: > 33.3 µM
GI50 [5]: 7.18 µM
TGI [5]: > 33.3 µM
GI50 [6]: 1.88 µM
TGI [6]: > 33.3 µM
GI50 [7]: 2.37 µM
TGI [7]: > 33.3 µM
GI50 [8]: 0.81 µM
TGI [8]: 2.76 µM
GI50 [10]: 1.68 µM
TGI [10]: > 33.3 µM
GI50 [9]: 1.06 µM
TGI [9]: > 33.3 µM

COc1cc(/C=C2\CN(C)CC3=C2Nc2nc(SC)[nH]c(=O)c2C3c2cc(OC)c(OC)c(OC)c2)cc(OC)c1OC (stereo unspecified)
GI50 [1]: 2 µM
TGI [1]: 4.41 µM
GI50 [2]: 6.17 µM
TGI [2]: 22.2 µM
GI50 [3]: 4.98 µM
TGI [3]: 18.3 µM
GI50 [4]: 2.06 µM
TGI [4]: 5.11 µM
GI50 [5]: 6.06 µM
TGI [5]: 18.9 µM
GI50 [6]: 2.46 µM
TGI [6]: 7.09 µM
GI50 [7]: 2.1 µM
TGI [7]: 4.29 µM
GI50 [8]: 2.98 µM
TGI [8]: 9.44 µM
GI50 [10]: 2.89 µM
TGI [10]: > 100 µM
GI50 [9]: 2.07 µM
TGI [9]: 4.79 µM

CC1=C(C(=O)NC2CCCCC2)CC(C(=O)NC2CCCCC2)=C(C)N1
TGI [1]: > 100 µM
TGI [3]: > 100 µM
TGI [4]: > 100 µM
TGI [5]: > 100 µM
TGI [6]: > 100 µM
TGI [7]: > 100 µM
TGI [8]: > 100 µM
TGI [9]: > 100 µM

O=C(C(=O)c1ccc(Cc2ccc(C(=O)C(=O)c3ccccc3)cc2)cc1)c1ccccc1
TGI [1]: > 100 µM
TGI [2]: > 100 µM
TGI [4]: > 100 µM
TGI [5]: > 100 µM
TGI [6]: > 100 µM
TGI [7]: > 100 µM
TGI [8]: > 100 µM
TGI [10]: > 100 µM
TGI [9]: > 100 µM

CSc1nc2c(c(O)c(C)c(=O)n2C2OC(COC(C)=O)C(OC(C)=O)C(OC(C)=O)C2OC(C)=O)c(=O)n1C (stereo unspecified)
TGI [1]: > 100 µM
TGI [2]: > 100 µM
TGI [4]: > 100 µM
TGI [5]: > 100 µM
TGI [6]: > 100 µM
TGI [7]: > 100 µM
TGI [8]: > 100 µM
TGI [10]: > 100 µM
TGI [9]: > 100 µM

Source: PubChem BioAssay (NCI)
